{"source": "patent US20250262263A1", "about": "“METHOD AND COMPOSITIONS FOR THE USE OF BOTANICAL EXTRACTS IN THE TREATMENT OF VIRAL INFECTIONS” (priority 2024, published 2025)", "system": "VACV", "format": "cell-based, vaccinia virus", "conditions": "100 pfu VACV, 48 HPI", "data": [{"smiles": "C=C(C)[C@@H]1CC[C@]2(C)CC[C@]3(C)[C@H](CC[C@@H]4[C@@]5(C)CC[C@H](O)C(C)(C)[C@@H]5CC[C@]43C)[C@@H]12", "note": "[lupeol]", "values": [{"measurement": "antiviral activity (VACV plaques)", "value": "did not show suitable antiviral activity"}]}]}
